In patent US11464763B2, “Parasiticidal compositions comprising an isoxazoline active agent, methods and uses thereof” (BOEHRINGER INGELHEIM ANIMAL HEALTH USA INC., priority 2011, dated 2022):

How the values were obtained:
[1] = system: Ctenocephalides felis; assay: Long lasting spot-on efficacy against Ctenocephalides felis fleas in cats (Example 9); assay type: in vivo
Method: The efficacy of spot-on compositions comprising Cmpd. A in DMI at different doses against Ctenocephalides felis fleas in cats was studied. Four treatment groups were formed with five cats per treatment group: Group 1—untreated control; Group 2—Compound A at 5.0% (w/v) in DMI to deliver a dose of 5 mg/kg; Group 3—Compound A at a concentration of 10.0% (w/v) in DMI to deliver a dose of 10 mg/kg; and Group 4—Compound A at a concentration of 15.0% (w/v) in DMI to deliver a dose of 15 mg/kg. Treatment was administered once on Day 0. The cats were each infested with approximately 100 C. felis fleas at each time point evaluated.
Cats in all treatment groups were infested on Days −1, 0 (approx. 12 h following treatment), 7, 28, 49, 70, 91, 105, 119 and 133. Cats were also infested on Days 126 and 140 (Treatment Groups 1 and 2); Days 147, 154, 155, 161, 168 and 175 (Treatment Groups 1, 3 and 4); Days 182, 189 and 197 (Treatment Groups 1 and 4). After each infestation, fleas were removed and counted approximately 48 hours (±3 hours) for most time points.

[2] = system: Ctenocephalides felis; assay: Spot-on efficacy against Ctenocephalides felis fleas on dogs, 40% DES/DMI (Example 5); assay type: in vivo; conditions: 4.0 mg/kg
Method: The efficacy of a formulation comprising an isoxazoline compound (Cmpd. A) in a carrier comprising 40% DES/DMI against Ctenocephalides felis fleas and Rhipicephalus sanguineus ticks in Dogs was studied. […] Three treatment groups containing three dogs each were evaluated. All dogs were treated once topically on Day 0 by parting the hair and applying the solution from a syringe directly onto the skin in a single spot on the midline of the neck between the base of the skull and the shoulder blades.
Treatment Group 1 was a placebo control and received 0.067 mL/kg of body weight. Treatment Group 2 was administered a topical spot-on formulation comprising 6.0% (w/v) Cmpd. A in 40% DES/DMI to deliver a dose of 4.0 mg/kg body weight. Treatment Group 3 was administered a topical spot-on formulation comprising 12% (w/v) Cmpd. A in 40% DES/DMI to deliver a dose of 4.0 mg/kg body weight.
All dogs were infested with approximately 100 C. felis on Days −1, 7, 14, 21, 28, 35 and 42. Fleas were counted upon removal from dogs approximately 24 hours post infestation on Days 1, 8, 15, 22, 29, 36 and 43. The % reduction (efficacy) of each Treatment Group over time is listed in Tables 6A, 6B and 7, respectively.

O=C(CNC(=O)c1ccc(C2=NOC(c3cc(Cl)cc(C(F)(F)F)c3)(C(F)(F)F)C2)c2ccccc12)NCC(F)(F)F (stereo not shown) [Compound A, 4-[5-[3-chloro-5-(trifluoromethyl)phenyl]-4,5-dihydro-5-(trifluoromethyl)-3-isoxazolyl]-N-[2-oxo-2-[(2,2,2-trifluoroethyl)amino]ethyl]-1-naphthalanecarboxamide]
efficacy against fleas ([1]; Group 2 (5 mg/kg), up to Day 121): 90%
% Reduction Fleas ([1]; Group 2: 5.0% in DMI, 5 mg/kg, Day 0 (12 hr)): 61.1%
% Reduction Fleas ([1]; Group 2: 5.0% in DMI, 5 mg/kg, Day 2): 100.0%
% Reduction Fleas ([1]; Group 2: 5.0% in DMI, 5 mg/kg, Day 9): 100.0%
% Reduction Fleas ([1]; Group 2: 5.0% in DMI, 5 mg/kg, Day 30): 100.0%
% Reduction Fleas ([1]; Group 2: 5.0% in DMI, 5 mg/kg, Day 51): 100.0%
% Reduction Fleas ([1]; Group 2: 5.0% in DMI, 5 mg/kg, Day 72): 100.0%
% Reduction Fleas ([1]; Group 2: 5.0% in DMI, 5 mg/kg, Day 93): 100.0%
% Reduction Fleas ([1]; Group 2: 5.0% in DMI, 5 mg/kg, Day 107): 100.0%
% Reduction Fleas ([1]; Group 2: 5.0% in DMI, 5 mg/kg, Day 121): 92.3%
% Reduction Fleas ([1]; Group 2: 5.0% in DMI, 5 mg/kg, Day 128): 89.1%
% Reduction Fleas ([1]; Group 2: 5.0% in DMI, 5 mg/kg, Day 135): 88.3%
% Reduction Fleas ([1]; Group 2: 5.0% in DMI, 5 mg/kg, Day 142): 80.0%
efficacy against fleas ([1]; Group 3 (10 mg/kg), up to Day 163): 90%
% Reduction Fleas ([1]; Group 3: 10.0% in DMI, 10 mg/kg, Day 0 (12 hr)): 95.4%
% Reduction Fleas ([1]; Group 3: 10.0% in DMI, 10 mg/kg, Day 2): 100.0%
% Reduction Fleas ([1]; Group 3: 10.0% in DMI, 10 mg/kg, Day 9): 100.0%
% Reduction Fleas ([1]; Group 3: 10.0% in DMI, 10 mg/kg, Day 30): 100.0%
% Reduction Fleas ([1]; Group 3: 10.0% in DMI, 10 mg/kg, Day 51): 100.0%
% Reduction Fleas ([1]; Group 3: 10.0% in DMI, 10 mg/kg, Day 72): 100.0%
% Reduction Fleas ([1]; Group 3: 10.0% in DMI, 10 mg/kg, Day 93): 100.0%
% Reduction Fleas ([1]; Group 3: 10.0% in DMI, 10 mg/kg, Day 107): 100.0%
% Reduction Fleas ([1]; Group 3: 10.0% in DMI, 10 mg/kg, Day 121): 100.0%
% Reduction Fleas ([1]; Group 3: 10.0% in DMI, 10 mg/kg, Day 135): 99.8%
% Reduction Fleas ([1]; Group 3: 10.0% in DMI, 10 mg/kg, Day 149): 99.5%
% Reduction Fleas ([1]; Group 3: 10.0% in DMI, 10 mg/kg, Day 155): 50.0%
% Reduction Fleas ([1]; Group 3: 10.0% in DMI, 10 mg/kg, Day 157): 98.1%
% Reduction Fleas ([1]; Group 3: 10.0% in DMI, 10 mg/kg, Day 163): 94.5%
% Reduction Fleas ([1]; Group 3: 10.0% in DMI, 10 mg/kg, Day 170): 87.8%
% Reduction Fleas ([1]; Group 3: 10.0% in DMI, 10 mg/kg, Day 177): 70.8%
efficacy against fleas ([1]; Group 4 (15 mg/kg), up to Day 191): 90%
% Reduction Fleas ([1]; Group 4: 15.0% in DMI, 15 mg/kg, Day 0 (12 hr)): 85.3%
% Reduction Fleas ([1]; Group 4: 15.0% in DMI, 15 mg/kg, Day 2): 100.0%
% Reduction Fleas ([1]; Group 4: 15.0% in DMI, 15 mg/kg, Day 9): 100.0%
% Reduction Fleas ([1]; Group 4: 15.0% in DMI, 15 mg/kg, Day 30): 100.0%
% Reduction Fleas ([1]; Group 4: 15.0% in DMI, 15 mg/kg, Day 51): 100.0%
% Reduction Fleas ([1]; Group 4: 15.0% in DMI, 15 mg/kg, Day 72): 100.0%
% Reduction Fleas ([1]; Group 4: 15.0% in DMI, 15 mg/kg, Day 93): 100.0%
% Reduction Fleas ([1]; Group 4: 15.0% in DMI, 15 mg/kg, Day 107): 100.0%
% Reduction Fleas ([1]; Group 4: 15.0% in DMI, 15 mg/kg, Day 121): 100.0%
% Reduction Fleas ([1]; Group 4: 15.0% in DMI, 15 mg/kg, Day 135): 100.0%
% Reduction Fleas ([1]; Group 4: 15.0% in DMI, 15 mg/kg, Day 149): 100.0%
% Reduction Fleas ([1]; Group 4: 15.0% in DMI, 15 mg/kg, Day 155): 78.0%
% Reduction Fleas ([1]; Group 4: 15.0% in DMI, 15 mg/kg, Day 157): 100.0%
% Reduction Fleas ([1]; Group 4: 15.0% in DMI, 15 mg/kg, Day 163): 100.0%
% Reduction Fleas ([1]; Group 4: 15.0% in DMI, 15 mg/kg, Day 170): 96.2%
% Reduction Fleas ([1]; Group 4: 15.0% in DMI, 15 mg/kg, Day 177): 94.8%
% Reduction Fleas ([1]; Group 4: 15.0% in DMI, 15 mg/kg, Day 184): 95.7%
% Reduction Fleas ([1]; Group 4: 15.0% in DMI, 15 mg/kg, Day 191): 90.6%
% Reduction Fleas ([1]; Group 4: 15.0% in DMI, 15 mg/kg, Day 199): 79.2%
% Reduction ([2]; Group 2: 6.0% in 40% DES/DMI, Day 1): 100.0%
% Reduction ([2]; Group 2: 6.0% in 40% DES/DMI, Day 8): 100.0%
% Reduction ([2]; Group 2: 6.0% in 40% DES/DMI, Day 15): 100.0%
% Reduction ([2]; Group 2: 6.0% in 40% DES/DMI, Day 22): 100.0%
% Reduction ([2]; Group 2: 6.0% in 40% DES/DMI, Day 29): 100.0%
% Reduction ([2]; Group 2: 6.0% in 40% DES/DMI, Day 36): 100.0%
% Reduction ([2]; Group 2: 6.0% in 40% DES/DMI, Day 43): 99.2%
% Reduction ([2]; Group 3: 12% in 40% DES/DMI, Day 1): 100.0%
% Reduction ([2]; Group 3: 12% in 40% DES/DMI, Day 8): 100.0%
% Reduction ([2]; Group 3: 12% in 40% DES/DMI, Day 15): 100.0%
% Reduction ([2]; Group 3: 12% in 40% DES/DMI, Day 22): 100.0%
% Reduction ([2]; Group 3: 12% in 40% DES/DMI, Day 29): 100.0%
% Reduction ([2]; Group 3: 12% in 40% DES/DMI, Day 36): 100.0%
% Reduction ([2]; Group 3: 12% in 40% DES/DMI, Day 43): 100.0%
